# Biological target: T1, human TGR5 (Homo sapiens, UniProt Q8TDU6)
# T1 construct: expressed in transfected cells; host or cells: HEK293
# T1 sequence (Q8TDU6 1-330): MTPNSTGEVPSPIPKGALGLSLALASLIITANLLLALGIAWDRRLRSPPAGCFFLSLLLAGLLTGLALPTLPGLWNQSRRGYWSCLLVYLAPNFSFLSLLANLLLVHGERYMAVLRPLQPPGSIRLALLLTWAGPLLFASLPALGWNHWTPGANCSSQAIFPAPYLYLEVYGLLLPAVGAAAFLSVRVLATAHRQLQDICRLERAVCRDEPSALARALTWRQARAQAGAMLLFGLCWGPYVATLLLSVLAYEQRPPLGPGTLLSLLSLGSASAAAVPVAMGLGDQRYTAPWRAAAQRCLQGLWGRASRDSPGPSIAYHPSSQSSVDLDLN
# Assay: Cell-based TGR5 assay (cAMP generation, HTRF)
# Conditions: HEK293 cells stably transfected with human TGR5; cAMP by HTRF; 30 minutes at 37° C.; read-out: pEC50 Human TGR5 (converted)
# How it was run: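 Read-out was HTRF detection of cAMP, converted to concentration via a standard curve and fitted (3-parameter logistic) for pEC50 and maximal response. Agonist stimulation used HEK293 cells stably transfected with human TGR5, incubated 30 min at 37° C in IBMX-containing buffer at 0.05 nM to 10 μM compound.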
row,SMILES,EC50 [nM]
1,"O=C([C@@H](O)[C@@H](O)[C@H](O)[C@@H](O)CO)N(CCCSc1ccc(Cl)c(COC2(c3cnccc3-c3ccccc3OC3CC3)CC2)c1)CCN1CCS(=O)(=O)CC1 [Compound I-521, (2S,3S,4R,5S)-N-(3-{[4-chloro-3-({1-[4-(2-cyclopropoxyphenyl)pyridin-3-yl]cyclopropoxy}methyl)phenyl]sulfanyl}propyl)-N-[2-(1,1-dioxo-1λ^6,4-thiomorpholin-4-yl)ethyl]-2,3,4,5,6-pentahydroxyhexanamide]",126 to 1000
2,"O=C(COC1CN(S(=O)(=O)c2ccc(Cl)c(COC3(c4cnccc4-c4ccccc4OC4CC4)CC3)c2)C1)NC[C@H](O)[C@@H](O)[C@H](O)[C@H](O)CO [Compound I-454, 2-({1-[4-chloro-3-({1-[4-(2-cyclopropoxyphenyl)pyridin-3-yl]cyclopropoxy}methyl)benzenesulfonyl]azetidin-3-yl}oxy)-N-[(2S,3R,4R,5R)-2,3,4,5,6-pentahydroxyhexyl]acetamide]",126 to 1000
3,"CS(=O)(=O)NCCCN(CCCSc1ccc(Cl)c(CNC2(c3cnccc3-c3ccccc3OC3CC3)CC2)c1)C(=O)[C@@H](O)[C@@H](O)[C@H](O)[C@@H](O)CO [Compound I-588, (2S,3S,4R,5S)-N-[3-({4-chloro-3-[({1-[4-(2-cyclopropoxyphenyl)pyridin-3-yl]cyclopropyl}amino)methyl]phenyl}sulfanyl)propyl]-2,3,4,5,6-pentahydroxy-N-(3-methanesulfonamidopropyl) hexanamide]",< 100
4,"Cc1cc(COC2(c3cnccc3-c3ccccc3OC3CC3)CC2)c(Cl)cc1CCCCNC(=O)N[C@H](CCCCN)C(=O)O [Compound I-119, (2R)-6-amino-2-[({4-[5-chloro-4-({1-[4-(2-cyclopropoxyphenyl)pyridin-3-yl]cyclopropoxy}methyl)-2-methylphenyl]butyl}carbamoyl)amino]hexanoic acid]",126 to 1000
5,"O=C([C@@H](O)[C@@H](O)[C@H](O)[C@@H](O)CO)N(CCCSc1ccc(Cl)c(CNC2(c3cnccc3-c3ccccc3OC3CC3)CC2)c1)C1CCS(=O)(=O)CC1 [Compound I-552, (2S,3S,4R,5S)-N-[3-({4-chloro-3-[({1-[4-(2-cyclopropoxyphenyl)pyridin-3-yl]cyclopropyl}amino)methyl]phenyl}sulfanyl)propyl]-N-(1,1-dioxo-1λ^6-thian-4-yl)-2,3,4,5,6-pentahydroxyhexanamide]",1260 to 10000
6,"Cc1ccccc1-c1ccncc1C1(OCc2cc(Cl)ccc2Cl)CC1 [Compound I-773, 3-(1-((2,5-dichlorobenzyl)oxy)cyclopropyl)-4-(o-tolyl)pyridine]",126 to 1000
7,"CC(CCCC(=O)N(CCS(=O)(=O)N(C)C)C[C@H](O)[C@@H](O)[C@H](O)[C@H](O)CO)c1ccc(Cl)c(CNC2(c3cnccc3-c3ccccc3OC3CC3)CC2)c1 (stereo partly drawn) [Compound I-348, 5-{4-chloro-3-[({1-[4-(2-cyclopropoxyphenyl)pyridin-3-yl]cyclopropyl}amino)methyl]phenyl}-N-[2-(dimethylsulfamoyl)ethyl]-N-[(2S,3R,4R,5R)-2,3,4,5,6-pentahydroxyhexyl]hexanamide]",< 100
8,"CC(CCCC(=O)N(CCS(C)(=O)=O)C[C@@H](O)[C@H](O)[C@@H](O)[C@@H](O)CO)c1ccc(Cl)c(CNC2(c3cnccc3-c3ccccc3OC3CC3)CC2)c1 (stereo partly drawn) [Compound I-346, 5-{4-chloro-3-[({1-[4-(2-cyclopropoxyphenyl)pyridin-3-yl]cyclopropyl}amino)methyl]phenyl}-N-(2-methanesulfonylethyl)-N-[(2R,3S,4S,5S)-2,3,4,5,6-pentahydroxyhexyl]hexanamide]",< 100
9,"COc1cccc(Cl)c1-c1ccncc1C1(OCc2cc(Cl)ccc2Cl)CC1 [Compound I-765, 4-(2-chloro-6-methoxyphenyl)-3-(1-((2,5-dichlorobenzyl)oxy)cyclopropyl)pyridine]",< 100
10,"COCCN(CCCCCNC(=O)NC[C@H](O)[C@@H](O)[C@H](O)[C@H](O)CO)S(=O)(=O)c1ccc(Cl)c(COC2(c3cnccc3-c3ccccc3OC3CC3)CC2)c1 [Compound I-412, 1-{5-[N-(2-methoxyethyl)4-chloro-3-({1-[4-(2-cyclopropoxyphenyl)pyridin-3-yl]cyclopropoxy}methyl)benzenesulfonamido]pentyl}-3-[(2S,3R,4R,5R)-2,3,4,5,6-pentahydroxyhexyl]urea]",< 100
11,"C[C@@H](CCCCC(=O)N(C)C[C@H](O)[C@@H](O)[C@H](O)[C@H](O)CO)c1ccc(Cl)c(CNC2(c3cnccc3-c3ccccc3OC3CC3)CC2)c1 (single isomer, unassigned) [Compound I-328]",< 100
12,"O=C(NC[C@H](O)[C@@H](O)[C@H](O)[C@H](O)CO)NC1CC2(CCN(S(=O)(=O)c3ccc(Cl)c(COC4(c5cnccc5-c5ccccc5OC5CC5)CC4)c3)CC2)C1 [Compound I-428, 1-{7-[4-chloro-3-({1-[4-(2-cyclopropoxyphenyl)pyridin-3-yl]cyclopropoxy}methyl)benzenesulfonyl]-7-azaspiro[3.5]nonan-2-yl}-3-[(2S,3R,4R,5R)-2,3,4,5,6-pentahydroxyhexyl]urea]",126 to 1000
13,"CC(=O)N(CCSc1ccc(Cl)c(COC2(c3cnccc3-c3ccccc3OC3CC3)CC2)c1)C[C@H](O)[C@@H](O)[C@H](O)[C@H](O)CO [Compound I-505, N-(2-{[4-chloro-3-({1-[4-(2-cyclopropoxyphenyl)pyridin-3-yl]cyclopropoxy}methyl)phenyl]sulfanyl}ethyl)-N-[(2S,3R,4R,5R)-2,3,4,5,6-pentahydroxyhexyl]acetamide]",< 100
14,"NCCOCCNS(=O)(=O)c1ccc(Cl)c(COC2(c3cnccc3-c3ccccc3OC3CC3)CC2)c1 [Compound I-399, N-[2-(2-aminoethoxy)ethyl]-4-chloro-3-({1-[4-(2-cyclopropoxyphenyl)pyridin-3-yl]cyclopropoxy}methyl)benzene-1-sulfonamide]",126 to 1000
15,"Cc1ccc(C)c(CNC2(c3cnccc3-c3ccccc3OC3CC3)CC2)c1 [Compound I-24, 1-[4-(2-cyclopropoxyphenyl)pyridin-3-yl]-N-[(2,5-dimethylphenyl)methyl]cyclopropan-1-amine]",< 100
16,"O=C([C@@H](O)[C@@H](O)[C@H](O)[C@@H](O)CO)N(CCCCSc1ccc(Cl)c(COC2(c3cnccc3-c3ccccc3OC3CC3)CC2)c1)CC1CCOCC1 [Compound I-516, (2S,3S,4R,5S)-N-(4-{[4-chloro-3-({1-[4-(2-cyclopropoxyphenyl)pyridin-3-yl]cyclopropoxy}methyl)phenyl]sulfanyl}butyl)-2,3,4,5,6-pentahydroxy-N-(oxan-4-ylmethyl)hexanamide]",< 100
17,"CC(C)N(CCCCNC(=O)NC[C@H](O)[C@@H](O)[C@H](O)[C@H](O)CO)S(=O)(=O)c1ccc(Cl)c(COC2(c3cnccc3-c3ccccc3OC3CC3)CCOC2)c1 (stereo partly drawn) [Compound I-750, 4-chloro-3-(((3-(4-(2-cyclopropoxyphenyl)pyridin-3-yl)tetrahydrofuran-3-yl)oxy)methyl)-N-isopropyl-N-(4-(3-((2S,3R,4R,5R)-2,3,4,5,6-pentahydroxyhexyl)ureido)butyl) benzenesulfonamide]",< 100
18,"CN(C)S(=O)(=O)c1ccc(Cl)c(COC2(c3cnccc3-c3ccccc3OC3CC3)CC2)c1 [Compound I-393, 4-chloro-3-([1-[4-(2-cyclopropoxyphenyl)pyridin-3-yl]cyclopropoxy]methyl)-N,N-dimethylbenzene-1-sulfonamide]",< 100
19,"O=C(CCCCc1ccc(Cl)c(CNC2(c3cnccc3-c3ccccc3OC3CC3)CC2)c1)NC[C@H](O)[C@@H](O)[C@H](O)[C@H](O)CO (stereo in doubt) [Compound I-233, 5-{4-chloro-3-[({1-[4-(2-cyclopropoxyphenyl)pyridin-3-yl]cyclopropyl}amino)methyl]phenyl}-N-[(2S,3R,4R,5R)-2,3,4,5,6-pentahydroxyhexyl]pentanamide]",< 100
20,"CNS(=O)(=O)c1ccc(Cl)c(COC2(c3cnccc3-c3ccccc3OC3CC3)CC2)c1 [Compound I-394, 4-chloro-3-({1-[4-(2-cyclopropoxyphenyl)pyridin-3-yl]cyclopropoxy}methyl)-N-methylbenzene-1-sulfonamide]",< 100
21,"Cc1cc(COC2(c3cnccc3-c3ccccc3OC3CC3)CC2)c(Cl)cc1CCCCN(CCCCCO)C(=O)NC[C@H](O)[C@@H](O)[C@H](O)[C@H](O)CO [Compound I-118, 1-{4-[5-chloro-4-({1-[4-(2-cyclopropoxyphenyl)pyridin-3-yl]cyclopropoxy}methyl)-2-methylphenyl]butyl}-1-(5-hydroxypentyl)-3-[(2S,3R,4R,5R)-2,3,4,5,6-pentahydroxyhexyl]urea]",< 100
22,"Clc1ccc(C2CC2)cc1CNC1(c2cnccc2-c2ccccc2OC2CC2)CC1 [Compound I-31, N-[(2-chloro-5-cyclopropylphenyl)methyl]-1-[4-(2-cyclopropoxyphenyl)pyridin-3-yl]cyclopropan-1-amine]",< 100
23,"CCOC(=O)NCCCN(CCCSc1ccc(Cl)c(CNC2(c3cnccc3-c3ccccc3OC3CC3)CC2)c1)C(=O)[C@@H](O)[C@@H](O)[C@H](O)[C@@H](O)CO [Compound I-590, ethyl N-{3-[(2S,3S,4R,5S)-N-[3-({4-chloro-3-[({1-[4-(2-cyclopropoxyphenyl)pyridin-3-yl]cyclopropyl}amino)methyl]phenyl}sulfanyl)propyl]-2,3,4,5,6-pentahydroxyhexanamido]propyl} carbamate]",< 100

# From patent US12084472B2 (Ardelyx, Inc., priority 2015, dated 2024)
